Legend:
[1] = test system: Neuroblastoma SH—SY5Y cells (SH/APPwt) with human wild-type β-APP excessively expressed; assay: Measurement of β-amyloid (Aβ) production inhibitory effect in cell; type: cell-based; conditions: 24 hours incubation, Amyloid β 1-40 by HTRF, read-out: amount needed to inhibit Aβ production by 50% (IC50)
Protocol: Neuroblastoma SH—SY5Y cells (SH/APPwt) with human wild-type p-APP excessively expressed therein were prepared at 8×10^5 cells/mL, and 150 μl portions thereof were inoculated into each well of a 96-well culture plate (Falcon). The cells were cultured for 2 hours at 37° C. in a 5% gaseous carbon dioxide incubator. Then, a solution which had been preliminarily prepared by adding and suspending the test compound (DMSO (dimethyl sulfoxide) solution) so as to be 2 μl/50 μl medium was added to the cell sap. Namely, the final DMSO concentration was 1%, and the amount of the cell culture was 200 μl. After the incubation was performed for 24 hours from the addition of the test compound, 100 μl of the culture supernatant was collected from each fraction. The amount of the Aβ in each fraction was measured.
The Aβ amount was measured as follows. 10 μl of a homogeneous time resolved fluorescence (HTRF) measurement reagent (Amyloid β 1-40 peptide; IBA Molecular Holding, S. A.) and 10 μl of the culture supernatant were put into a 384-well half area microplate (black microplate, Costar) and mixed with each other, and then left standing overnight at 4° C. while the light was shielded. Then, the fluorescence intensity (excitation wavelength: 337 nm, measurement wavelength: 620 nm and 665 nm) was measured with a Wallac 1420 multilabel counter (Perkin Elmer life sciences). The Aβ amount was determined from the count rate at each measurement wavelength (10000× Count 665/Count 620), and the amount needed to inhibit Aβ production by 50% (IC50) was calculated from at least six different dosages.

Recombinant human BACE1 = molecular target: T1, Recombinant human BACE1 (Homo sapiens, UniProt P56817); assay: Assay of BACE 1 inhibiting activity; type: biochemical; conditions: Recombinant human BACE1 7.4 nmol/L, substrate peptide 18 nmol/L, pH 5.0, 30° C., 3 hours; read-out: 50% inhibitory concentration against the enzymatic activity (IC50)
T1 construct: purchased R&D Systems
Protocol: 48.5 μL of substrate peptide solution (Biotin-XSEVNLDAEFRHDSGC-Eu: X═ε-amino-n-capronic acid, Eu=Europium cryptate) was added to each well of 96-hole half-area plate (a black plate: Costar), and after addition of 0.5 μl of the test compound (dissolved in […]) and 1 μl of Recombinant human BACE1 (R&D Systems), the reaction mixture was incubated at 30° C. for 3 hours. The substrate peptide was synthesized by reacting Cryptate TBPCOOH mono SMP (CIS bio international) with Biotin-XSEVNLDAEFRHDSGC (Peptide Institute, Inc.). The final concentrations of the substrate peptide and Recombinant human BACE1 were adjusted to 18 nmol/L and 7.4 nmol/L, respectively, and the reaction was performed in sodium acetate buffer (50 mmol/L sodium acetate, pH 5.0, 0.008% Triton X-100).
After the incubation for reaction, 50 μl of 8.0 μg/ml Streptavidin-XL665 (CIS bio international) dissolved in phosphate buffer (150 mmol/L K2 HPO4—KH2PO4, pH 7.0, 0.008% Triton X-100, 0.8 mol/L KF) was added to each well and left stand at 30° C. for an hour. After then, fluorescence intensity was measured (excitation wavelength: 320 nm, measuring wavelength: 620 nm and 665 nm) using Wallac 1420 multilabel counter (Perkin Elmer life sciences). Enzymatic activity was determined from counting ratio of each wavelength (10,000× Count 665/Count 620) and 50% inhibitory concentration against the enzymatic activity was calculated.

[2] = Metabolism stability test; type: in vitro ADME; conditions: human liver microsomes 0.5 mg protein/mL, 1 mmol/L NADPH, 37° C., 30 minutes; 0 minute = 100%
Protocol: Using commercially available pooled human hepatic microsomes, a test compound is reacted for a constant time, a remaining rate is calculated by comparing a reacted sample and an unreacted sample, thereby, a degree of metabolism in liver is assessed.
A reaction is performed (oxidative reaction) at 37° C. for 0 minute or 30 minutes in the presence of 1 mmol/L NADPH in 0.2 mL of a buffer (50 mmol/L Tris-HCl pH 7.4, 150 mmol/L potassium chloride, 10 mmol/L magnesium chloride) containing 0.5 mg protein/mL of human liver microsomes. After the reaction, 50 μL of the reaction solution is added to 100 μL of a methanol/acetonitrile=1/1 (v/v), mixed and centrifuged at 3000 rpm for 15 minutes. The test compound in the supernatant is quantified by LC/MS/MS, and a remaining amount of the test compound after the reaction is calculated, letting a compound amount at 0 minute reaction time to be 100%.

CYP2D6 = molecular target: T2, CYP2D6 (Homo sapiens, UniProt P10635); assay: CYP inhibition test (dextromethorphan O-demethylation); type: in vitro ADME; conditions: pooled human hepatic microsome, test drug concentration 1, 5, 10, 20 μmol/L
T2 construct: enzyme, pooled human hepatic microsome 0.2 mg protein/mL; from tissue; host or cells: pooled human hepatic microsome
Protocol: (§1) Using commercially available pooled human hepatic microsome, and employing, as markers, 7-ethoxyresorufin O-deethylation (CYP1A2), tolbutamide methyl-hydroxylation (CYP2C9), mephenyloin 4′-hydroxylation (CYP2C19), dextromethorphan O-demethylation (CYP2D6), and terfenadine hydroxylation (CYP3A4) as typical substrate metabolism reactions of human main five CYP enzyme forms (CYP1A2, 2C9, 2C19, 2D6, 3A4), an inhibitory degree of each metabolite production amount by a test compound was assessed. […] After the centrifugation at 3000 rpm for 15 minutes, resorufin (CYP1A2 metabolite) in the supernatant was quantified by a fluorescent multilabel counter and tolbutamide hydroxide (CYP2C9 metabolite), mephenyloin 4′ hydroxide (CYP2C19 metabolite), dextrorphan (CYP2D6 metabolite), and terfenadine alcohol (CYP3A4 metabolite) were quantified by LC/MS/MS. Addition of only DMSO being a solvent dissolving a drug to a reaction system was adopted as a control (100%), remaining activity (%) was calculated at each concentration of a test drug added as the solution and IC50 was calculated by reverse presumption by a logistic model using a concentration and an inhibition rate.

CYP3A4 [3] = molecular target: T3, CYP3A4 (Homo sapiens, UniProt P08684); assay: CYP inhibition test (terfenadine hydroxylation); type: in vitro ADME; parameters: enzyme, pooled human hepatic microsome 0.2 mg protein/mL; from tissue; host or cells: pooled human hepatic microsome; conditions: pooled human hepatic microsome, test drug concentration 1, 5, 10, 20 μmol/L
Protocol: as §1

CYP2C9 = molecular target: T4, CYP2C9 (Homo sapiens, UniProt P11712); assay: CYP inhibition test (tolbutamide methyl-hydroxylation); type: in vitro ADME; conditions: pooled human hepatic microsome, test drug concentration 1, 5, 10, 20 μmol/L
T4 construct: enzyme, pooled human hepatic microsome 0.2 mg protein/mL; from tissue; host or cells: pooled human hepatic microsome
Protocol: as §1

CYP2C19 = molecular target: T5, CYP2C19 (Homo sapiens, UniProt P33261); assay: CYP inhibition test (mephenytoin 4'-hydroxylation); type: in vitro ADME; conditions: pooled human hepatic microsome, test drug concentration 1, 5, 10, 20 μmol/L
T5 construct: enzyme, pooled human hepatic microsome 0.2 mg protein/mL; from tissue; host or cells: pooled human hepatic microsome
Protocol: as §1

CYP1A2 = molecular target: T6, CYP1A2 (Homo sapiens, UniProt P05177); assay: CYP inhibition test (7-ethoxyresorufin O-deethylation); type: in vitro ADME; conditions: pooled human hepatic microsome, test drug concentration 1, 5, 10, 20 μmol/L
T6 construct: enzyme, pooled human hepatic microsome 0.2 mg protein/mL; from tissue; host or cells: pooled human hepatic microsome
T6 sequence (P05177 1-516): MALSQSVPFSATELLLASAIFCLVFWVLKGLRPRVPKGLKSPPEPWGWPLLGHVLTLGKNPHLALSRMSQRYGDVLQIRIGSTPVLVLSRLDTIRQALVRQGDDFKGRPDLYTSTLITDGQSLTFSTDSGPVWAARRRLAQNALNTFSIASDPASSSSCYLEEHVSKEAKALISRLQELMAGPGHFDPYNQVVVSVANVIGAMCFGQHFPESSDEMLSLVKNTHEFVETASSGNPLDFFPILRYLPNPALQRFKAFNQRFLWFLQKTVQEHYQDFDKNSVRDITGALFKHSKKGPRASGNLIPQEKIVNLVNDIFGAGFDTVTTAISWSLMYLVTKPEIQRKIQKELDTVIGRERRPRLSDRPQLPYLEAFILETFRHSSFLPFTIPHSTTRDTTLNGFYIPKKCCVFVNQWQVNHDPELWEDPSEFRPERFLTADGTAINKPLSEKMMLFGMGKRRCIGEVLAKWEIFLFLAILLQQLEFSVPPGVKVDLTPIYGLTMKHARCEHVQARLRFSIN
Protocol: as §1

CYP3A4 [4] = molecular target: T3, CYP3A4; assay: CYP3A4 fluorescent MBI test; type: in vitro ADME; parameters: host or cells: Escherichia coli; conditions: CYP3A4 expressed in Escherichia coli, substrate 7-BFC, pre-reaction 0 or 30 minutes
Protocol: The CYP3A4 fluorescent MBI test is a test of investigating enhancement of CYP3A4 inhibition of a compound by a metabolism reaction, and the test was performed using, as CYP3A4 enzyme expressed in Escherichia coli and employing, as an index, a reaction in which 7-benzyloxytrifluoromethylchmarin (7-BFC) is debenzylated by the CYP3A4 enzyme to produce a metabolite, 7-hydroxytrifluoromethylchmarin (HFC) emitting fluorescent light.
The reaction conditions were as follows: substrate, 5.6 μmol/L 7-BFC; pre-reaction time, 0 or 30 minutes; reaction time, 15 minutes; reaction temperature, 25° C. […]
An enzyme in a K-Pi buffer (pH 7.4) and a test drug solution as a pre-reaction solution were added to a 96-well plate at the composition of the pre-reaction, a part of it was transferred to another 96-well plate so that it was 1/10 diluted by a substrate in a K-Pi buffer, NADPH as a co-factor was added to initiate a reaction as an index (without preincubation) and, after a predetermined time of a reaction, acetonitrile/0.5 mol/L Tris(trishydroxyaminomethane)=4/1 was added to stop the reaction. […] For the plate on which each index reaction had been performed, a fluorescent value of 7-HFC which is a metabolite was measured with a fluorescent plate reader. […]

T1 sequence (P56817 46-501): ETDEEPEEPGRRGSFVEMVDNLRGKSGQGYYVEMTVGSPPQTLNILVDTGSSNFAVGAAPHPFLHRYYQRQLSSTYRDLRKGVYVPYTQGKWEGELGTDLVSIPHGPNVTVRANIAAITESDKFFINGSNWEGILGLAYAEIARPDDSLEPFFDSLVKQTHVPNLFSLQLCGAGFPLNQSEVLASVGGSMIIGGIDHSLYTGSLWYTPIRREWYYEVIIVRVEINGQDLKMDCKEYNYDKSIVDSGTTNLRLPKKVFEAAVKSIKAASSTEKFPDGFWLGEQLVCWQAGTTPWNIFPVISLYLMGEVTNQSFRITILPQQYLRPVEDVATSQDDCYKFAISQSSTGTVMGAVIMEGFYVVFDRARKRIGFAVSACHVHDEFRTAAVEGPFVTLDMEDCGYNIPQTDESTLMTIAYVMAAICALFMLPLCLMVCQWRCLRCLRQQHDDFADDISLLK
T3 sequence (P08684 whole entry): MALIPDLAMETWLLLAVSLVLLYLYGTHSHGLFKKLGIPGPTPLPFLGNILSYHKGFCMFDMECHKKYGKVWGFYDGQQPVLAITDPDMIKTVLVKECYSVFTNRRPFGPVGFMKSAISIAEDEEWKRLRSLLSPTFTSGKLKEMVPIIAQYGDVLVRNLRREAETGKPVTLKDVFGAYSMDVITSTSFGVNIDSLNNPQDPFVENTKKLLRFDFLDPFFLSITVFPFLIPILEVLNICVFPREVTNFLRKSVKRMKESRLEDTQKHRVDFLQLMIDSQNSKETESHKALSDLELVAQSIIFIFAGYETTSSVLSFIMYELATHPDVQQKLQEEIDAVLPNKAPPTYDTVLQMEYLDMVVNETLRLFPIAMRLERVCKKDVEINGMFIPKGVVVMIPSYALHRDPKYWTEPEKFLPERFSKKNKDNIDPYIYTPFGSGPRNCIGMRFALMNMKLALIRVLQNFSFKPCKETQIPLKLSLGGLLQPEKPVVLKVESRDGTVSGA
T2 sequence (P10635 whole entry): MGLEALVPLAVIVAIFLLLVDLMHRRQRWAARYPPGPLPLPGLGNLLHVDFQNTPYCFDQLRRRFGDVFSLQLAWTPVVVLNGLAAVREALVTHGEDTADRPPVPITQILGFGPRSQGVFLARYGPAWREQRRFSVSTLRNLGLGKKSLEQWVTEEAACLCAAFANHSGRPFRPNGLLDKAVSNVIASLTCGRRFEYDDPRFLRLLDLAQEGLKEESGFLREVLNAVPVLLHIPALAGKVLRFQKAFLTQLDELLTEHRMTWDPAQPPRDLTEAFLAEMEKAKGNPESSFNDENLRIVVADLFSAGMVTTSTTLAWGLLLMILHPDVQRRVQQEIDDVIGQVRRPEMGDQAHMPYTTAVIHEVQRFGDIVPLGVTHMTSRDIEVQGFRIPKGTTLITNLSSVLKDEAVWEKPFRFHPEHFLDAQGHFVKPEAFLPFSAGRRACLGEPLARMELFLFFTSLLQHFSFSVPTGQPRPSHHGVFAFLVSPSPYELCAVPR
T5 sequence (P33261 whole entry): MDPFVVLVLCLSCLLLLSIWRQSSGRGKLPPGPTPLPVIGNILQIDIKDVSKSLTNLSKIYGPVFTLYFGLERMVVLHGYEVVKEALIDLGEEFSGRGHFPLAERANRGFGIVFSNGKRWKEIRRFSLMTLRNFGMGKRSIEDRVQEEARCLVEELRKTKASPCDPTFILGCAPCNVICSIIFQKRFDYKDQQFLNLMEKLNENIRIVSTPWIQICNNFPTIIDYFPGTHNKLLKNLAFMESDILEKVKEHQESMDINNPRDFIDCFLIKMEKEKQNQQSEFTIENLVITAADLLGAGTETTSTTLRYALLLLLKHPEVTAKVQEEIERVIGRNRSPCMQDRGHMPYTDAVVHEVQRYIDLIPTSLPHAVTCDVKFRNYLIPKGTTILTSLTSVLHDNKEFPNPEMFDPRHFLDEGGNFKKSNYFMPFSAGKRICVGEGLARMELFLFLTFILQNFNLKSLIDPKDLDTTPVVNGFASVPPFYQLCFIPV
T4 sequence (P11712 whole entry): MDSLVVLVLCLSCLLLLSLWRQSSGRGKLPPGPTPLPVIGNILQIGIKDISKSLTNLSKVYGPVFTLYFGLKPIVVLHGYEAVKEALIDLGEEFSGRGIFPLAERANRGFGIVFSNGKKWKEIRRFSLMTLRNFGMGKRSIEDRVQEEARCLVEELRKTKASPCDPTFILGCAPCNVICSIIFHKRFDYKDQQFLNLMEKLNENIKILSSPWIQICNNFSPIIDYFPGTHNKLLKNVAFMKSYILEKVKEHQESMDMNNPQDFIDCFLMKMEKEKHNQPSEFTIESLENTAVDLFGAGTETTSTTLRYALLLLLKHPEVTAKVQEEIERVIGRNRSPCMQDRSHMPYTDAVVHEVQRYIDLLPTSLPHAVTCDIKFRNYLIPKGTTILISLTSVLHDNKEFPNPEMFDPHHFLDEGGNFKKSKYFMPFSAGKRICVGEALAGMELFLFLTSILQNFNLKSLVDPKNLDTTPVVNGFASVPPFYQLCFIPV

IC50 [1] [µM]	IC50 (Recombinant human BACE1) [µM]	Compound	further results
≤ 1		COc1cncc(-c2ccc(F)c(C34CCCC3COC(N)=N4)c2)c1 (racemic) [Compound I-41]	
≤ 1	≤ 1	COc1cnc(C(=O)Nc2ccc(F)c(C34COCC3COC(N)=N4)c2)cn1 (racemic) [Compound I-35]	
≤ 1		CNC(=O)c1ccc(-c2ccc(F)c(C34COCC3COC(N)=N4)c2)cn1 (racemic) [Compound I-43]	
≤ 1	≤ 1	N#Cc1ccc(C(=O)Nc2ccc(F)c(C34CCCC3COC(N)=N4)c2)nc1 (racemic) [Compound I-38]	
≤ 1		NC1=NC2(c3cc(-c4cccnc4F)ccc3F)COCC2CO1 (racemic) [Compound I-42]	remaining amount of the test compound after the reaction [2]: 94.7%
≤ 1		Cc1cnc(C(=O)Nc2ccc(F)c(C34COCC3COC(N)=N4)c2)cn1 (racemic) [Compound I-34]	
≤ 1	≤ 1	N#Cc1ccc(C(=O)Nc2ccc(F)c(C34COCC3COC(N)=N4)c2)nc1 (racemic) [Compound I-33]	IC50 (CYP2D6): > 20 µM; IC50 (CYP3A4 [3]): > 20 µM; IC50 (CYP2C9): > 20 µM; IC50 (CYP2C19): > 20 µM; IC50 (CYP1A2): > 20 µM
0.001		CC#CCOc1cnc(C(=O)Nc2ccc(F)c(C34COCC3COC(N)=N4)c2)cn1 (racemic) [Compound I-37]	
≤ 1		NC1=NC2(c3cc(-c4cccnc4F)ccc3F)CCCC2CO1 (racemic) [Compound I-40]	
≤ 1		NC1=NC2(c3cc(NC(=O)c4ccc(OC(F)F)cn4)ccc3F)CCCC2CO1 (centres unmarked) [Compound I-46]	
≤ 1	0.029	C=C1SC(N)=NC2(c3cc(NC(=O)c4ccc(C#N)cn4)ccc3F)COCC12 (racemic) [Compound I-3]	
≤ 1		COc1cncc(-c2ccc(F)c(C34COCC3COC(N)=N4)c2)c1 (racemic) [Compound I-44]	CYP3A4 MBI: difference of IC50 value with and without preincubation (CYP3A4 [4]): (−) (When the difference was 3 μM or less, the result was defined as (−))
≤ 1	≤ 1	NC1=NC2(c3cc(NC(=O)c4ccc(Cl)cn4)ccc3F)COCC2CO1 (racemic) [Compound I-36]	
≤ 1		NC1=NC2(c3cc(-c4cncc(Cl)c4)ccc3F)COCC2CO1 (racemic) [Compound I-45]	

From patent US20120245155A1, “FUSED HETEROCYCLIC COMPOUND HAVING AMINO GROUP” (Shionogi & Co., Ltd., priority 2009, published 2012)
